Reference: patent US11554151B2, “Composition containing Perilla frutescens fermented extract for prevention, alleviation, or treatment of sleep disorder” (AJOU UNIVERSITY INDUSTRY-ACADEMIC COOPERATION FOUNDATION, priority 2017, dated 2023)

Tested on: ICR mice
Test: Pentobarbital-induced sleep test (sleep latency and total sleeping time)
Type: in vivo
Details: Example 2-1; positive control, 1 mg/kg oral, 30 min before pentobarbital 45 mg/kg i.p.
Protocol: The sleep improvement effects of the Perilla frutescens fermented extract and conventionally sold sedatives were intended to be confirmed from comparison of sleep latency and total sleeping time.
Specifically, 0.9% physiological saline, 10 mg/kg of the Perilla frutescens extract (Perilla-W) or fermented extract thereof (Perilla-B) prepared in [Example 1], and 1 mg/kg of diazepam (Myung In Pharm. Co., Ltd.) were each orally administered to ICR mice (OrientBio). 30 minutes after the administration of the test materials, 45 mg/kg of a nerve stabilizer pentobarbital (HANLIM PHARM. Co., Ltd.) was intraperitoneally administered to induce sleep. After the administration of pentobarbital, the time required to go into deep sleep (sleep latency) and the total sleep maintenance time (total sleeping time) were measured for each test material administration group. Physiological saline and diazepam were used as a control and a positive control, respectively.
Specifically, sleep latency and total sleeping time ere measured in the same manner as in Example <2-1> using 0.9% physiological saline and 10 mg/kg of the Perilla frutescens extract (Perilla-W) or fermented extract thereof (Perilla-B, Perilla-L, and Perilla-S) prepared in [Example 1].

In the case of `CN1C(=O)CN=C(c2ccccc2)c2cc(Cl)ccc21` [diazepam], the sleep latency is reported as 220 s.
